Measurements taken from DBAASP.
Values after ≈ are worked out from the molar mass of the structure shown.

Experiments:
Test in all cases: ≥ marks a high value that may be exact or a test limit, other limits are often not marked, values filed in µg/mL are converted to µM
Escherichia coli = tested on: Escherichia coli
Listeria innocua = tested on: Listeria innocua
Micrococcus luteus A270 = tested on: Micrococcus luteus A270
[1] = tested on: Salmonella enterica subsp. enterica serovar Enteritidis
Bacillus subtilis = tested on: Bacillus subtilis
Candida albicans = tested on: Candida albicans
Cryptococcus neoformans = tested on: Cryptococcus neoformans
Pseudomonas putida = tested on: Pseudomonas putida
Saccharomyces cerevisiae = tested on: Saccharomyces cerevisiae
Salmonella typhimurium = tested on: Salmonella typhimurium
Serratia marcescens = tested on: Serratia marcescens
Staphylococcus aureus = tested on: Staphylococcus aureus
Streptococcus mutans = tested on: Streptococcus mutans
Streptococcus pneumoniae = tested on: Streptococcus pneumoniae
[2] = tested on: Acinetobacter baumannii ATCC 7978
[3] = tested on: Candida albicans ATCC 10231
[4] = tested on: Klebsiella aerogenes ATCC 13048
[5] = tested on: Staphylococcus aureus ATCC 29231
[6] = tested on: Staphylococcus aureus MW2
Bacillus anthracis = tested on: Bacillus anthracis
Bacillus cereus = tested on: Bacillus cereus
Candida albicans MDM8 = tested on: Candida albicans MDM8
Escherichia coli SBS 363 = tested on: Escherichia coli SBS 363
[7] = tested on: Pseudomonas aeruginosa ATCC 27853
[8] = tested on: Salmonella enterica subsp. arizonae ATCC 13314
[9] = tested on: Escherichia coli DH5alpha
[10] = tested on: Staphylococcus aureus SH1000
[11] = tested on: Klebsiella pneumoniae WGLW2
Staphylococcus xylosus = tested on: Staphylococcus xylosus

In the case of `CC(C)C[C@H](NC(=O)[C@@H](N)C(C)C)C(=O)N[C@@H](CO)C(=O)N[C@@H](C)C(=O)N[C@@H](C)C(=O)N[C@@H](CC(=O)O)C(=O)N[C@@H](CCCCN)C(=O)NCC(=O)N[C@@H](CC(N)=O)C(=O)N[C@H](C(=O)N[C@@H](CCCCN)C(=O)N[C@@H](C)C(=O)N[C@@H](C)C(=O)N[C@@H](Cc1c[nH]c2ccccc12)C(=O)NCC(=O)N[C@@H](CCCCN)C(=O)N[C@H](C(=O)NCC(=O)NCC(=O)N[C@@H](Cc1cnc[nH]1)C(=O)N[C@@H](C)C(=O)N[C@@H](C)C(=O)N[C@@H](CCC(=O)O)C(=O)N[C@@H](Cc1ccc(O)cc1)C(=O)NCC(=O)N[C@@H](C)C(=O)N[C@@H](CCC(=O)O)C(=O)N[C@@H](C)C(=O)O)C(C)C)C(C)C` [VLSAADKGNVKAAWGKVGGHAAEYGAEA], the MIC (Escherichia coli) is reported as 54 µM (≈ 147 µg/mL), the MIC (Listeria innocua) is reported as 27 µM (≈ 73.7 µg/mL) and the MIC (Micrococcus luteus A270) is reported as no less than 54 µM. It also gave an MIC [1] of 27 µM (≈ 73.7 µg/mL).
`CC(C)C[C@H](NC(=O)[C@H](C)NC(=O)[C@H](CC(N)=O)NC(=O)[C@H](C)NC(=O)[C@@H](NC(=O)CNC(=O)[C@H](C)NC(=O)[C@@H](NC(=O)[C@@H](NC(=O)[C@H](CCCCN)NC(=O)[C@H](CCC(N)=O)NC(=O)[C@H](Cc1ccccc1)NC(=O)[C@H](CC(=O)O)NC(=O)[C@H](C)NC(=O)[C@H](CCC(N)=O)NC(=O)[C@H](CC(C)C)NC(=O)[C@@H](NC(=O)[C@@H]1CCCN1C(=O)[C@@H](NC(=O)[C@@H](N)Cc1ccccc1)[C@@H](C)O)C(C)C)C(C)C)C(C)C)C(C)C)C(=O)N[C@@H](C)C(=O)N[C@@H](Cc1cnc[nH]1)C(=O)N[C@@H](CCCN=C(N)N)C(=O)N[C@@H](Cc1ccc(O)cc1)C(=O)N[C@@H](Cc1cnc[nH]1)C(=O)O` [FTPVLQADFQKVVAGVANALAHRYH] showed an MIC (Escherichia coli) of 73 µM (≈ 201 µg/mL), an MIC (Listeria innocua) of no less than 73 µM and an MIC (Micrococcus luteus A270) of no less than 85 µM. For the same molecule, the MIC [1] was no less than 73 µM.
Work on `CC(C)C[C@H](NC(=O)[C@H](CC(C)C)NC(=O)[C@H](CCCN=C(N)N)NC(=O)[C@H](CCCN=C(N)N)NC(=O)[C@H](CC(C)C)NC(=O)[C@H](CC(C)C)NC(=O)[C@H](CCCN=C(N)N)NC(=O)[C@H](CCCN=C(N)N)NC(=O)[C@H](CC(C)C)NC(=O)[C@H](CC(C)C)NC(=O)[C@H](CCCN=C(N)N)NC(=O)[C@H](CCCN=C(N)N)NC(=O)[C@H](CC(C)C)NC(=O)[C@H](CC(C)C)NC(=O)[C@H](CCCN=C(N)N)NC(=O)[C@H](CCCN=C(N)N)NC(=O)[C@H](CC(C)C)NC(=O)[C@H](CC(C)C)NC(=O)[C@@H](N)CCCN=C(N)N)C(=O)N[C@@H](CCCN=C(N)N)C(=O)O` [RLLRRLLRRLLRRLLRRLLR] yielded an MIC (Bacillus subtilis) of 0.738 µM (≈ 2 µg/mL), an MIC (Candida albicans) of 2.95 µM (≈ 8 µg/mL) and an MIC (Cryptococcus neoformans) of 2.95 µM (≈ 8 µg/mL). It also gave an MIC (Escherichia coli) of 0.738 µM (≈ 2 µg/mL), an MIC (Pseudomonas putida) of 0.738 µM (≈ 2 µg/mL) and an MIC (Saccharomyces cerevisiae) of 2.95 µM (≈ 8 µg/mL). It also gave an MIC (Salmonella typhimurium) of 0.369 µM (≈ 1 µg/mL), an MIC (Serratia marcescens) of 0.738 µM (≈ 2 µg/mL) and an MIC (Staphylococcus aureus) of 0.369 µM (≈ 1 µg/mL). For the same molecule, the MIC (Streptococcus mutans) was 0.738 µM (≈ 2 µg/mL) and the MIC (Streptococcus pneumoniae) was 0.738 µM (≈ 2 µg/mL).
`CC[C@H](C)[C@H](NC(=O)[C@H](CCCCN)NC(=O)[C@H](Cc1c[nH]c2ccccc12)NC(=O)[C@@H](N)CC(C)C)C(=O)NCC(=O)N[C@@H](Cc1c[nH]c2ccccc12)C(=O)N[C@@H](CCCCN)C(=O)N[C@H](C(=O)N[C@@H](Cc1c[nH]c2ccccc12)C(=O)N[C@@H](CCCN=C(N)N)C(=O)N[C@H](C(=O)NCC(=O)N[C@@H](Cc1c[nH]c2ccccc12)C(=O)N[C@@H](CC(N)=O)C(=O)N[C@@H](Cc1c[nH]c2ccccc12)C(=O)N[C@@H](CCCN=C(N)N)C(=O)O)C(C)C)[C@@H](C)CC` [LWKIGWKIWRVGWNWR] gave an MIC [2] of 14.7 µM (≈ 32 µg/mL), an MIC [3] of 29.3 µM (≈ 64 µg/mL) and an MIC [4] of no less than 58.6 µM. The MIC [5] was 14.7 µM (≈ 32 µg/mL) and the MIC [6] was 14.7 µM (≈ 32 µg/mL).
`CC(C)C[C@H](NC(=O)[C@H](CC(C)C)NC(=O)[C@H](CO)NC(=O)[C@H](CCCCN)NC(=O)[C@H](CC(C)C)NC(=O)[C@@H]1CCCN1C(=O)[C@H](C)NC(=O)[C@H](Cc1ccccc1)NC(=O)[C@@H]1CCCN1C(=O)[C@H](CC(C)C)NC(=O)[C@@H](NC(=O)[C@H](CCCCN)NC(=O)[C@H](CCCCN)NC(=O)[C@@H](NC(=O)[C@H](CO)NC(=O)[C@@H](N)C(C)C)C(C)C)C(C)C)C(=O)N[C@@H](CO)C(=O)N[C@@H](Cc1ccccc1)C(=O)N[C@@H](C)C(=O)N[C@@H](Cc1ccccc1)C(=O)O` [VSVKKVLPFAPLKSLLSFAF] showed an MIC (Bacillus anthracis) of no less than 117 µM, an MIC (Bacillus cereus) of no less than 117 µM and an MIC (Escherichia coli) of 117 µM (≈ 256 µg/mL). It also gave an MIC (Staphylococcus aureus) greater than 117 µM.
`CC[C@H](C)[C@H](NC(=O)[C@H](CC(C)C)NC(=O)[C@H](CO)NC(=O)[C@H](CC(C)C)NC(=O)[C@H](CC(C)C)NC(=O)[C@@H](N)CO)C(=O)N[C@@H](CCCN=C(N)N)C(=O)N[C@@H](CCCCN)C(=O)N[C@@H](CC(C)C)C(=O)N[C@@H](CC(C)C)C(=O)N[C@H](C(N)=O)[C@@H](C)O` [SLLSLIRKLLT] was tested, and the MIC (Candida albicans MDM8) was 0.4 µM (≈ 0.502 µg/mL), the MIC (Escherichia coli SBS 363) was 1.6 µM (≈ 2.01 µg/mL) and the MIC (Micrococcus luteus A270) was 0.4 µM (≈ 0.502 µg/mL). The MIC [7] was 1.6 µM (≈ 2.01 µg/mL) and the MIC [8] was no less than 50 µM.
`CC[C@H](C)[C@H](NC(=O)[C@H](C)NC(=O)[C@H](CCCCN)NC(=O)[C@@H](NC(=O)[C@H](CC(C)C)NC(=O)[C@H](CCCCN)NC(=O)[C@H](CCCCN)NC(=O)[C@@H](NC(=O)CNC(=O)[C@H](C)NC(=O)[C@H](Cc1ccccc1)NC(=O)[C@H](Cc1ccccc1)NC(=O)[C@H](CCCCN)NC(=O)CNC(=O)[C@@H](N)Cc1c[nH]c2ccccc12)C(C)C)[C@@H](C)O)C(=O)N[C@@H](CC(C)C)C(=O)NCC(=O)N[C@@H](CCC(=O)O)C(=O)N[C@H](C(=O)N[C@@H](C)C(N)=O)[C@@H](C)CC` [WGKFFAGVKKLTKAILGEIA] showed an MIC [9] of 3.16 µM (≈ 6.88 µg/mL) and an MIC [10] of 3.16 µM (≈ 6.88 µg/mL).
With `CC(C)C[C@H](NC(=O)[C@H](CCCN=C(N)N)NC(=O)[C@H](Cc1cnc[nH]1)NC(=O)[C@@H](NC(=O)[C@H](CCCN=C(N)N)NC(=O)CNC(=O)[C@@H](NC(=O)[C@@H]1CCCN1C(=O)[C@H](Cc1ccccc1)NC(=O)[C@H](CCC(N)=O)NC(=O)[C@H](CC(C)C)NC(=O)CNC(=O)[C@H](C)NC(=O)[C@@H](N)CCCN=C(N)N)C(C)C)C(C)C)C(=O)O` [RAGLQFPVGRVHRL] the MIC (Bacillus subtilis) was no less than 79.7 µM, the MIC (Candida albicans) was greater than 159 µM and the MIC (Cryptococcus neoformans) was no less than 159 µM. It also gave an MIC (Escherichia coli) of 159 µM (≈ 256 µg/mL), an MIC (Pseudomonas putida) of no less than 159 µM and an MIC (Saccharomyces cerevisiae) of no less than 159 µM. It also gave an MIC (Salmonella typhimurium) of no less than 79.7 µM, an MIC (Serratia marcescens) of no less than 159 µM and an MIC (Staphylococcus aureus) of 159 µM (≈ 256 µg/mL). The MIC (Streptococcus mutans) was no less than 159 µM and the MIC (Streptococcus pneumoniae) was no less than 79.7 µM.
Molecule `CC[C@H](C)[C@H](NC(=O)[C@H](Cc1c[nH]c2ccccc12)NC(=O)[C@H](CCCCN)NC(=O)[C@@H](N)CC(C)C)C(=O)NCC(=O)N[C@@H](CCCCN)C(=O)N[C@@H](Cc1c[nH]c2ccccc12)C(=O)N[C@H](C(=O)N[C@@H](Cc1c[nH]c2ccccc12)C(=O)N[C@@H](CCCN=C(N)N)C(=O)N[C@H](C(=O)NCC(=O)O)C(C)C)[C@@H](C)CC` [LKWIGKWIWRVG] has an MIC [2] of no less than 83 µM, an MIC [11] of no less than 83 µM and an MIC [5] of no less than 83 µM. It also gave an MIC [6] of no less than 41.5 µM.
`CC[C@H](C)[C@H](N)C(=O)N[C@@H](CC(C)C)C(=O)N[C@H](C(=O)N[C@@H](CCCCN)C(=O)N[C@@H](CCCN=C(N)N)C(=O)N[C@@H](CCCCN)C(=O)O)[C@@H](C)CC` [ILIKRK] showed an MIC [9] of no less than 64 µM and an MIC (Staphylococcus xylosus) of no less than 64 µM.
Work on `CC(C)C[C@H](NC(=O)[C@@H](NC(=O)[C@@H]1CCCN1C(=O)[C@H](CC(C)C)NC(=O)[C@@H](N)Cc1ccccc1)C(C)C)C(=O)N[C@H](C(=O)N[C@@H](CCCCN)C(=O)N[C@H](C(=O)N[C@@H](Cc1ccccc1)C(=O)N[C@@H](CCCN=C(N)N)C(=O)N[C@@H](Cc1ccc(O)cc1)C(=O)N[C@@H](CO)C(=O)N[C@@H](CCCCN)C(=O)N[C@@H](CCCCN)C(=O)N[C@H](C(=O)N[C@@H](C)C(=O)N[C@@H](C)C(=O)NCC(=O)N[C@@H](CS)C(=O)N[C@@H](Cc1ccccc1)C(=O)O)[C@@H](C)O)C(C)C)C(C)C` [FLPVLVKVFRYSKKTAAGCF] yielded an MIC (Bacillus anthracis) of no less than 113 µM, an MIC (Bacillus cereus) of 28.1 µM (≈ 64 µg/mL) and an MIC (Escherichia coli) greater than 56.3 µM. The MIC (Staphylococcus aureus) was greater than 113 µM.
